Three molecules from article PMC7022278, “Alpha-Amylase and Alpha-Glucosidase Enzyme Inhibition and Antioxidant Potential of 3-Oxolupenal and Katononic Acid Isolated from Nuxia oppositifolia” (Biomolecules, 2019) can be followed below.

Values joined by “and” are separate entries in the source; they are usually repeats but may differ in a detail not shown here. Identical values can stand only once.

Assay [1] in a line: ABTS radical cation scavenging activity. As to conditions: for ABTS Scavenging Activity (IC50 value): means of three experiments ± SD; for IC50: molar value in brackets. As for the experimental part:
The ABTS radical scavenging activity of the samples was measured using the method of Re et al. (1999) with slight modification. ABTS solution in water (7 mM concentration) and an aqueous solution of potassium persulfate (2.45 mM) were prepared. The two solutions were mixed in the volume ratio 1:1 and stored in the dark 6 h at room temperature to produce the ABTS radical. The blue chromophore, which has a characteristic absorbance at 734 nm, was generated by reacting equal amount of ABTS and potassium persulfate solution. The ABTS stock solution was diluted with ethanol to an absorbance of 0.70 ± 0.02 at 734 nm and equilibrated at 30 °C. The crude extract, different fractions and isolated compounds at 100 µg/mL concentrations were mixed with 2.9 mL of diluted ABTS radical cation solution. The reaction was incubated at 30 °C for 20 min, and the absorbance at 734 nm was measured. The affinity of the test sample to quench the ABTS free radical was evaluated using Equation (1).

Assay [2] is described as follows: DPPH radical scavenging activity. As to conditions: for DPPH Scavenging Activity (IC50 value): means of three experiments ± SD; for IC50: molar value in brackets. As to the method: The DPPH radical scavenging method measured the antioxidant activity following the method of Braca et al. (2001) with slight modification. The crude extract, fractions, and compounds at 100 µg/mL concentrations were added to 3 mL of 0.004% DPPH solution. In the control sample, methanol was added in place of test extract/fractions/compounds. The DPPH is violet in color at room temperature and the color changes to yellow by either the process of hydrogen or electron donation by antioxidants. Absorbance was measured at 520 nm after 30 min incubation. The percent inhibition was calculated using Equation (1).
(The DPPH test is a chemical assay of radical scavenging.)

Assay [3] deals with T1, α-amylase (Sus scrofa, UniProt P00690).
T1 construct: purchased Sigma-Aldrich Co., St Louis, MO, USA
T1 sequence (P00690 16-511): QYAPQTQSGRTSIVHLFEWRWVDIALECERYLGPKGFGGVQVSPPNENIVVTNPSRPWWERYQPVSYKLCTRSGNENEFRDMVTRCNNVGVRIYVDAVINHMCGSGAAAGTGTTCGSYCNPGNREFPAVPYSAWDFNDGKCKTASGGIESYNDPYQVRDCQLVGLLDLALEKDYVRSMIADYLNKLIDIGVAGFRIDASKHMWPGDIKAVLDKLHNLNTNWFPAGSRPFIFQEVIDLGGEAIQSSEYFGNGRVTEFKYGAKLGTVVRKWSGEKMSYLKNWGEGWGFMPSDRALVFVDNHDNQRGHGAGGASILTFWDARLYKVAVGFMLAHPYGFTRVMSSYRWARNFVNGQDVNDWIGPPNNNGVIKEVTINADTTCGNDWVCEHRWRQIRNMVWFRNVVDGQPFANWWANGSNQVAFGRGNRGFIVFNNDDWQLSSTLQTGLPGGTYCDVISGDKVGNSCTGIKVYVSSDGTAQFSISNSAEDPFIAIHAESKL
Nature of the assay: Fluorescence quenching-based binding study, α-amylase. As to conditions: 298 K; for Number of Binding Sites n: pH 6.8. As to the method: (§1) Proteins were excited at 295 nm and the fluorescence spectra were recorded in the 300–450 nm range. The excitation and emission slit widths were set at 5 nm each. The concentration of proteins was fixed at 2 µM while the concentration of quenchers was varied. The inner filter effect contributed by quenchers was corrected using the following relation. (2) Fcorr=Fobs×e^(Aex+Aem)/2 where Fcorr is the corrected fluorescence intensity, Fobs is the observed fluorescence intensity, Aex is the absorbance at the excitation wavelength, and Aem is the absorbance at the emission wavelength.
(§2) Observing quenching in the fluorescence intensity of a protein in the presence of a ligand is a powerful tool in determining the binding parameters such as binding affinity and Gibb’s free energy of stabilization. Here, we have followed quenching in the fluorescence intensity of α-amylase and α-glucosidase in the presence of 3-oxolupenal and katononic acid at 298 K (Figure 4 and Figure 5). […] The binding parameters for the interaction were deduced using the following Stern–Volmer and modified Stern–Volmer equations. (3) Fo/F=1+KSV[Q]=1+kqτo[Q] (4) log(Fo−F/F)=logKa+nlog[Q] where, Fo and F are the fluorescence intensities of enzymes (α-amylase and α-glucosidase) in the absence and presence of ligands (3-oxolupenal and katononic acid); KSV is the Stern–Volmer constant; [Q] is the molar concentration of ligands (3-oxolupenal and katononic acid); kq is the bimolecular quenching rate constant; τo is the lifetime of enzymes’ fluorescence in the absence of ligands (=5.71 × 10^−9 s); Ka is the binding constant; n is the number of binding sites on the enzyme.

Assay [4] concerns the target α-glucosidase. Kind of assay: Inhibition assay for glucosidase activity (pNPG). To be noted: for Inhibition of α-Glucosidase (IC50 value): means of three experiments ± SD; for IC50: molar value in brackets. The assay is classed as biochemical. As to the method:
Glucosidase inhibition assay was carried out by following the method of Elya et al. (2008). The different fractions of the plant and compounds were prepared using 5% dimethyl sulfoxide (DMSO). […] Next, 50 μL of 5 mM p-nitrophenyl-α-D-glucopyranoside (pNPG) were added to the mixture to start the reaction. The reaction mixture was incubated at 37 °C for 60 min and stopped by adding 2.5 mL of 0.1 M Na2CO3. […] The mean values were obtained from triplicate experiments. The inhibition of glucosidase activity was calculated as percentage inhibition using Equation (1).

Assay [5] concerns the target T2, Porcine α-amylase (pancreatic α-amylase) (Sus scrofa, UniProt P00690).
T2 construct: purchased Sigma-Aldrich Co., St Louis, MO, USA
T2 sequence (P00690 16-511): T1 sequence (P00690 16-511)
Kind of assay: Inhibition assay for amylase activity (starch/DNS). The assay is classed as biochemical. As for the experimental part: The different fractions of the plant and compounds were prepared using 5% dimethyl sulfoxide (DMSO). Fraction/compound (500 µL) of 100 µg/mL concentration (i.e., 50 µg) and 500 µL of 20 mM sodium phosphate buffer (pH 6.8) containing 20 µL of amylase (0.5 mg/mL) were incubated at 25 °C for 10 min. After pre-incubation, 500 µL of 1% starch solution in 0.02 M sodium phosphate buffer (pH 6.9) were added to each tube and incubated for 15 min. The reaction was stopped with 1.0 mL of dinitrosalicyclic acid. The test tubes were then incubated in a boiling water bath for 5 min and cooled to room temperature. The reaction mixture was then diluted after adding 10 mL distilled water, and the absorbance (Abs) was measured at 540 nm. Mean values were obtained from triplicate experiments. The control samples were prepared without any plant extracts/fractions/compounds. The percent inhibition of amylase activity was calculated using the following formula:(1) Inhibition(%)=(AbsControl−AbsCompound/AbsControl)×100 The mean values were obtained from triplicate experiments.

The subject of assay [6] is α-glucosidase. Nature of the assay: Fluorescence quenching-based binding study, α-glucosidase. As to conditions: 298 K. As to the method: as §1, §2
Where [7] appears, read: pH 6.8, listed as Katononic Acid.
Where [8] appears, read: pH 6.8, listed as katononic acid.
Where [9] appears, read: means of three experiments ± SD.

As a reminder, the IC50 is the concentration needed to halve the response being measured. Read a low IC50 as greater potency in that assay. As for `Cc1cc(C(C)(C)C)c(O)c(C(C)(C)C)c1` [BHT, butylated hydroxytoluene, reference compound], in assay [1], the “ABTS Scavenging Activity (IC50 value)” value worked out at 28.0 ± 1.9 µg/mL and the half-inhibitory concentration (IC50) was 127 µM. Further, in assay [2], the “DPPH Scavenging Activity (IC50 value)” value worked out at 16.6 ± 6.2 µg/mL and the IC50 is 75.3 µM.

As for `CC1(C)C(=O)CC[C@]2(C)[C@H]3CC=C4[C@@H]5C[C@](C)(C(=O)O)CC[C@]5(C)CC[C@@]4(C)[C@]3(C)CC[C@@H]12` [Katononic acid, katononic acid], the “ABTS Scavenging Activity (IC50 value)” value in assay [1] stood at 82.7 ± 4.7 µg/mL. Moreover, the concentration for half-maximal inhibition (IC50) in assay [1] is 182 µM; in assay [4] it was 195 µM; in assay [5] (setting [9]), 115 µM; in assay [5] (molar value in brackets) it was 119 µM and 115 µM; in assay [2], 192 µM. The “Number of Binding Sites n” value in assay [3] stood at 0.7646. Also, the “Bimolecular Quenching Rate Constant (kq)” value was 2.77e+13 M⁻¹ s⁻¹ in assay [3] (setting [7]), ~10^13 M^−1 s^−1 in assay [3] (setting [8]), 3.59e+13 M⁻¹ s⁻¹ in assay [6] (setting [7]) and ~10^13 M^−1 s^−1 in assay [6] (setting [8]). The “Stern–Volmer Constant (KSV)” value is 158000 M⁻¹ in assay [3] (setting [7]), ~10^5 M^−1 in assay [3] (setting [8]), 205000 M⁻¹ in assay [6] (setting [7]) and ~10^5 M^−1 in assay [6] (setting [8]). Also, the “Inhibition of α-Glucosidase (IC50 value)” value in assay [4] came out at 88.6 ± 6.2 µg/mL. In assay [2], the “DPPH Scavenging Activity (IC50 value)” value is reported as 87.5 ± 5.4 µg/mL.

For `C=C(C=O)[C@@H]1CC[C@]2(C)CC[C@]3(C)[C@H](CC[C@@H]4[C@@]5(C)CCC(=O)C(C)(C)[C@@H]5CC[C@]43C)[C@@H]12` [3-oxolupenal], the “ABTS Scavenging Activity (IC50 value)” value in assay [1] is given as 84.2 ± 5.1 µg/mL. In addition, the IC50 in assay [1] was 192 µM; in assay [4], 142 µM; in assay [5] (setting [9]), 105 µM; in assay [5] (molar value in brackets) it was 102 µM and 105 µM; in assay [2], 188 µM. Besides, in assay [3], the “Number of Binding Sites n” value is 1.0865. The “Inhibition of α-Glucosidase (IC50 value)” value in assay [4] was 62.3 ± 2.4 µg/mL. Also, in assay [2], the “DPPH Scavenging Activity (IC50 value)” value was found to be 82.7 ± 6.7 µg/mL.
